Measurements from patent US20230322722A1, “MODULATORS OF MYC FAMILY PROTO-ONCOGENE PROTEIN” (Nalo Therapeutics, priority 2020, published 2023).

Columns and labels:
MycC protein = target: T1, MycC protein (Homo sapiens, UniProt P01106); test: Degradation of MycC protein, Western blot, L-363 cells (Example 160); format: cell-based; conditions: 6 h
T1 construct: either 2×10^6 of L-363 (human leukemia cell line) or SKNBE2 (neuroblastoma cell line) cells; endogenous in cells; host or cells: L-363 / L363 human leukemia cells
T1 sequence (P01106 whole entry): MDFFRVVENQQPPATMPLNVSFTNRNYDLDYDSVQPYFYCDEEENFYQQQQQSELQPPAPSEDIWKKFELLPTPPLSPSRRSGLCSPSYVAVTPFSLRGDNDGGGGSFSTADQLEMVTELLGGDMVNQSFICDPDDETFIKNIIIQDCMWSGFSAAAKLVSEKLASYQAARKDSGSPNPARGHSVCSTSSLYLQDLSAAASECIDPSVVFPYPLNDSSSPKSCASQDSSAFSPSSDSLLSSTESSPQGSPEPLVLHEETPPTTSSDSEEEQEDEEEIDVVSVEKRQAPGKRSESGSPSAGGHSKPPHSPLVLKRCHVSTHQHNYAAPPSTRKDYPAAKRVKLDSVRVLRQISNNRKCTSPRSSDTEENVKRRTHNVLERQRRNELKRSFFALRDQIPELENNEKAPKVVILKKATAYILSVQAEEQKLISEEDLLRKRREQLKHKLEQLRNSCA
Procedure: (§1) In a T150 flask was plated either 2×10^6 of L-363 (human leukemia cell line) or SKNBE2 (neuroblastoma cell line) cells in a total of 30 mL containing Roswell Park Memorial Institute (RPMI) 1640 Medium (Thermo Fisher, Cat. #11875-085), 10% Fetal Bovine Serum (FBS, Thermo Fisher: Cat. #10437-028), 1% Penicillin/streptomycin (Thermo Fisher: Cat. #10378016), and 1% Amophotericin B (Thermo Fisher, Cat. #15290026). The cells were split every 72 hours by reseeding the L-363 or SKNBE2 cells, and the passage number was noted. It is noteworthy that cell cultures that were above 40 passages were not used, and most experiments were done with cells of less than 30 passages.
(§2) In a 6-well cell culture plate, a total of 3 mL of either 1×10^6 cells/mL of L-363 or SKNBE2 cells were seeded, resulting in a total of 3×10^6 cells per well. To each well containing 3 mL of either L-363 or SKNBE2 cell line was added 6 uL of MycN modulating compound (1 mM) and the resulting plate was shaken from left to right, and not swirled. After 6 hours, the cells were placed in a 15 mL falcon tube and spun at 500 Gs at 4° C. in a swinging bucket centrifuge. The medium was then carefully removed without disturbing the pellet. The pellet was then washed with 3 mLs of chilled phosphate buffered saline (PBS) and subjected to the spin cycle. PBS was then removed and the pellet was lysed in 200 uL of radioimmunoprecipitation (RIPA) lysis buffer (Thermo Fisher: Cat. #899000) that is supplemented with protease and phosphatase inhibitors (Thermo Fisher: Cat. #A32959). The cell lysate was then subjected to spinning in a centrifuge for 10 minutes at 13000 G at 4° C. The supernatant was then carefully transferred to a fresh eppendorf tube without disturbing the pellet (˜180 uL). The protein concentration of the cell lysate was then determined by using a bicinchoninic acid (BCA assay) according to manufacturer's protocol (Thermo Fisher: Cat. #23227).
(§3) Cell lysate, approximately 25 ug-30 ug, was loaded per well in a 4-20% polyacrylamide gel (Biorad. Cat. #5671094). After running the dye front off of the gel, the gel was transferred to a nitrocellulose membrane (Biorad: Cat. #1704159) using the transblot turbo system (Biorad: Cat. #1704150) according to manufacturer's protocol. After transferring for 30 minutes, the membrane was blocked with 5% BSA for 1 hour at room temperature. The BSA was then washed off and the primary antibody of choice (1:500) was added, and the membrane was incubated with the primary antibody at 4° C. for overnight. The next morning, the primary antibody was removed and the membrane was washed with 1×-TBST for 10 minutes and repeated three more times. Following the last wash, a secondary antibody (Molecular Devices. Cat. #R8209 or R8208) was added at 1:5000 dilution and incubated for 1 hour at room temperature. Following the incubation with the secondary antibody, the membrane was washed with 1×-TBST for 10 minutes and repeated three more times. Following the last wash, the membrane was washed with de-ionized water twice and dried for at least two hours. Once the membrane is completely dry, the Molecular Devices Spectra Max western system was used to observe the bands. The western image was saved and the band density was measured with ImageJ software.

MycN protein = target: T2, MycN protein (Homo sapiens, UniProt P04198); test: Degradation of MycN protein, Western blot, SKNBE2 cells (Example 160); format: cell-based
T2 construct: either 2×10^6 of L-363 (human leukemia cell line) or SKNBE2 (neuroblastoma cell line) cells; endogenous in cells; host or cells: SKNBE2 / SK-N-BE(2) neuroblastoma cells
T2 sequence (P04198 1-464): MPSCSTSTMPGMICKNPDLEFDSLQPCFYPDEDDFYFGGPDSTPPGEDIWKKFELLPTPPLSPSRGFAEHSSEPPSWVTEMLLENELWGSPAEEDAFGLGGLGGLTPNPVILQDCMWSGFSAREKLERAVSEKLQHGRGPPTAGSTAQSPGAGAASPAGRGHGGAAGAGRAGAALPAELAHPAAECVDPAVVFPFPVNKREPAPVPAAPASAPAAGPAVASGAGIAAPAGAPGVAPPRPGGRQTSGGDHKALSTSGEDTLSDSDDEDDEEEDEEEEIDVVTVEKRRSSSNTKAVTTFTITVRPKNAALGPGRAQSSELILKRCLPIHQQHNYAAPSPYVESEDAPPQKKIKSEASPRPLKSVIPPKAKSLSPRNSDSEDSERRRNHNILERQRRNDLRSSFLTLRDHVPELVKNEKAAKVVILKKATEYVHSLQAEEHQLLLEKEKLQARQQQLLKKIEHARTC
Procedure: as §1, §2, §3

SMILES | inhibition at 2 µM (MycC protein) [%] | inhibition at 2 µM (MycN protein; SKNBE2, 6 h) [%] | inhibition at 2 µM (MycN protein; 6 h) [%]
CN(c1nccc(Nc2cc(C3CC3)[nH]n2)n1)[C@H]1CC[C@H](NC(=O)N2Cc3cc(F)c(F)cc3C2)CC1 [Compound 12, N-((1R,4R)-4-((4-((5-cyclopropyl-1H-pyrazol-3-yl)amino)pyrimidin-2-yl)(methyl)amino)cyclohexyl)-5,6-difluoroisoindoline-2-carboxamide] | 80 to 100 | 50 to 79 | 
CN(c1nccc(Nc2cc(C3CC3)[nH]n2)n1)[C@H]1CC[C@H](NC(=O)N2CCc3cc(F)c(F)cc3C2)CC1 [Compound 13, N-((1R,4R)-4-((4-((5-cyclopropyl-1H-pyrazol-3-yl)amino)pyrimidin-2-yl)(methyl)amino)cyclohexyl)-6,7-difluoro-3,4-dihydroisoquinoline-2(1H)-carboxamide] | 80 to 100 | 50 to 79 | 
CN(c1nccc(Nc2cc(C3CC3)[nH]n2)n1)[C@H]1CC[C@H](NC(=O)N2CCn3nc(C(F)(F)F)nc3C2)CC1 [Compound 14, N-((1R,4R)-4-((4-((5-cyclopropyl-1H-pyrazol-3-yl)amino)pyrimidin-2-yl)(methyl)amino)cyclohexyl)-2-(trifluoromethyl)-5,6-dihydro-[1,2,4]triazolo[1,5-a]pyrazine-7(8H)-carboxamide] | 80 to 100 | 80 to 100 | 
Cc1cnc(CC(=O)NC2CCC(N(C)c3nccc(Nc4cc(C5CC5)[nH]n4)n3)CC2)cn1 [Compound 108, N-((1R,4R)-4-((4-((5-cyclopropyl-1H-pyrazol-3-yl)amino)pyrimidin-2-yl)(methyl)amino)cyclohexyl)-2-(5-methylpyrazin-2-yl)acetamide] | 80 to 100 | 50 to 79 | 
Cn1nc(Nc2ccnc(N(C)[C@H]3CC[C@H](NC(=O)C4Cc5ccccc5C4)CC3)n2)cc1C1CC1 [Compound 111, N-((1R,4R)-4-((4-((5-cyclopropyl-1-methyl-1H-pyrazol-3-yl)amino)pyrimidin-2-yl)(methyl)amino)cyclohexyl)-2,3-dihydro-1H-indene-2-carboxamide] | < 20 | 20 to 49 | 
CN(c1nccc(Nc2cc(C3CC3)[nH]n2)n1)[C@H]1CC[C@H](NC(=O)Cc2cccc(S(C)(=O)=O)c2)CC1 [Compound 115, N-((1R,4R)-4-((4-((5-cyclopropyl-1H-pyrazol-3-yl)amino)pyrimidin-2-yl)(methyl)amino)cyclohexyl)-2-(3-(methylsulfonyl)phenyl)acetamide] | 50 to 79 | < 20 | 
CN(c1nccc(Nc2cc(C3CC3)[nH]n2)n1)[C@H]1CC[C@H](C(=O)NC2Cc3ccccc3C2)CC1 [Compound 119, (1R,4R)-4-((4-((5-cyclopropyl-1H-pyrazol-3-yl)amino)pyrimidin-2-yl)(methyl)amino)-N-(2,3-dihydro-1H-inden-2-yl)cyclohexane-1-carboxamide] | 80 to 100 |  | 80 to 100
CN(c1nccc(Nc2cc(C3CC3)[nH]n2)n1)C1CCC(CC(=O)NC2Cc3ccccc3C2)CC1 (stereo not shown) [Compound 121, 2-(4-((4-((5-cyclopropyl-1H-pyrazol-3-yl)amino)pyrimidin-2-yl)(methyl)amino)cyclohexyl)-N-(2,3-dihydro-1H-inden-2-yl)acetamide] | 80 to 100 |  | 80 to 100
CN(c1nccc(Nc2cc(C3CC3)[nH]n2)n1)[C@H]1CC[C@H](NC(=O)Cc2ccnc(C(F)(F)F)c2)CC1 [Compound 123, N-((1R,4R)-4-((4-((5-cyclopropyl-1H-pyrazol-3-yl)amino)pyrimidin-2-yl)(methyl)amino)cyclohexyl)-2-(2-(trifluoromethyl)pyridin-4-yl)acetamide] | 20 to 49 | 20 to 49 | 

Second part, led by results:

inhibition at 2 µM (MycC protein) [%] | inhibition at 2 µM (MycN protein; SKNBE2, 6 h) [%] | SMILES | inhibition at 2 µM (MycN protein; 6 h) [%]
50 to 79 | < 20 | CN(c1cc(C2CC2)[nH]n1)c1ccnc(N(C)[C@H]2CC[C@H](NC(=O)C3CCc4ccccc43)CC2)n1 (stereo partly drawn) [Compound 109, N-((1R,4R)-4-((4-((5-cyclopropyl-1H-pyrazol-3-yl)(methyl)amino)pyrimidin-2-yl)(methyl)amino)cyclohexyl)-2,3-dihydro-1H-indene-1-carboxamide] | 
20 to 49 | < 20 | CN(c1cc(C2CC2)[nH]n1)c1ccnc(N(C)[C@H]2CC[C@H](NC(=O)C3Cc4ccccc4C3)CC2)n1 [Compound 110, N-((1R,4R)-4-((4-((5-cyclopropyl-1H-pyrazol-3-yl)(methyl)amino)pyrimidin-2-yl)(methyl)amino)cyclohexyl)-2,3-dihydro-1H-indene-2-carboxamide] | 
80 to 100 | 50 to 79 | CN(c1nccc(Nc2cc(C3CC3)[nH]n2)n1)[C@H]1CC[C@H](NC(=O)C2CCc3ccccc32)CC1 (stereo partly drawn) [Compound 112, N-((1R,4R)-4-((4-((5-cyclopropyl-1H-pyrazol-3-yl)amino)pyrimidin-2-yl)(methyl)amino)cyclohexyl)-2,3-dihydro-1H-indene-1-carboxamide] | 
80 to 100 | < 20 | CN(c1nccc(Nc2cc(C3CC3)[nH]n2)n1)[C@H]1CC[C@H](NC(=O)C2(C)CCOCC2)CC1 [Compound 116, N-((1R,4R)-4-((4-((5-cyclopropyl-1H-pyrazol-3-yl)amino)pyrimidin-2-yl)(methyl)amino)cyclohexyl)-4-methyltetrahydro-2H-pyran-4-carboxamide] | 
80 to 100 | 80 to 100 | CN(c1nccc(Nc2cc(C3CC3)[nH]n2)n1)[C@H]1CC[C@H](NC(=O)c2cn3ccccc3n2)CC1 [Compound 117, N-((1R,4R)-4-((4-((5-cyclopropyl-1H-pyrazol-3-yl)amino)pyrimidin-2-yl)(methyl)amino)cyclohexyl)imidazo[1,2-a]pyridine-2-carboxamide] | 
80 to 100 | 50 to 79 | Cn1ncc2cc(C(=O)N[C@H]3CC[C@H](N(C)c4nccc(Nc5cc(C6CC6)[nH]n5)n4)CC3)ccc21 [Compound 118, N-((1R,4R)-4-((4-((5-cyclopropyl-1H-pyrazol-3-yl)amino)pyrimidin-2-yl)(methyl)amino)cyclohexyl)-1-methyl-1H-indazole-5-carboxamide] | 
80 to 100 | 50 to 79 | CN(c1nccc(Nc2cc(C3CC3)[nH]n2)n1)[C@H]1CC[C@H](C(=O)NCC2Cc3ccccc3C2)CC1 [Compound 120, (1R,4R)-4-((4-((5-cyclopropyl-1H-pyrazol-3-yl)amino)pyrimidin-2-yl)(methyl)amino)-N-((2,3-dihydro-1H-inden-2-yl)methyl)cyclohexane-1-carboxamide] | 
80 to 100 | 50 to 79 | Cn1nnc(C(=O)N[C@H]2CC[C@H](N(C)c3nccc(Nc4cc(C5CC5)[nH]n4)n3)CC2)n1 [Compound 122, N-((1R,4R)-4-((4-((5-cyclopropyl-1H-pyrazol-3-yl)amino)pyrimidin-2-yl)(methyl)amino)cyclohexyl)-2-methyl-2H-tetrazole-5-carboxamide] | 
